Assays:
[1] = system: Glucose uptake; format: cell-based, rat
[2] = system: rat alkaline phosphatase; test: p-nitrophosphate hydrolysis by rat alkaline phosphatase; format: biochemical
Procedure: The results shown in Example A used a 3-second exposure of vesicles and substrates and a 5 minute exposure of vesicles to 2′-FPP. Prior exposure and degradation of 2′-PP in contrast to 2′-FPP could be contributing to the increased potency of 2′-FPP as compared to 2′-PP. To examine this possibility the effect of phosphophloretins on p-nitrophosphate hydrolysis by rat alkaline phosphatase and intestinal BBMV phosphatases was examined.

[3] = system: intestinal BBMV phosphatases; format: biochemical
[4] = target: T1, intestinal Na-phosphate cotransporter (Rattus norvegicus, UniProt Q9JJ09); format: biochemical
T1 sequence (Q9JJ09 1-695): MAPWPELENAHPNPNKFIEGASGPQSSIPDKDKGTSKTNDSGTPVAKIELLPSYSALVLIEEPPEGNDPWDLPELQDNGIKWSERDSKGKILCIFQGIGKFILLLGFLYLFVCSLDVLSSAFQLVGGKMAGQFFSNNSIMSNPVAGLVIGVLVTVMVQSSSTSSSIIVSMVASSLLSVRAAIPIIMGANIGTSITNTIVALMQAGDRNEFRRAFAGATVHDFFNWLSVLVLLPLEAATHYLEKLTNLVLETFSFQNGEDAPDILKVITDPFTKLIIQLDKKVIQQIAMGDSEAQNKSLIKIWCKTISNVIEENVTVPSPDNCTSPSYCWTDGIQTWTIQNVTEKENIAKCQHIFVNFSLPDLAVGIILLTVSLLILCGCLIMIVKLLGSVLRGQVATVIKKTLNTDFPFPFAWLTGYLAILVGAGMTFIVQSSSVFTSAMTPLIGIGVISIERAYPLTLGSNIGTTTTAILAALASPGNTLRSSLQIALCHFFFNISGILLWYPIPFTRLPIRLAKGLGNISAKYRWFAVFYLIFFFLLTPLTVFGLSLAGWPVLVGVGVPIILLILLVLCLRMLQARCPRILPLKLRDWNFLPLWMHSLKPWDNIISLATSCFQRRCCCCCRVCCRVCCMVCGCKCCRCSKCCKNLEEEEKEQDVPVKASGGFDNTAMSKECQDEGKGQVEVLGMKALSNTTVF

[5] = rat, in vivo
[6] = target: T2, intestinal brush border membrane Na/phosphate cotransporter, NaPi 2b (Rattus norvegicus, UniProt Q9JJ09); test: cell-based; format: cell-based
T2 construct: Rat duodenum/jejunum intestinal strips 1 cm square were incubated in DMEM; from tissue; host or cells: rat duodenum/jejunum intestinal strips
T2 sequence (Q9JJ09 1-695): T1 sequence (Q9JJ09 1-695)

[7] = target: T1, intestinal Na-phosphate cotransporter; format: biochemical; design: other: intestinal BBMV; 3-second exposure of vesicles and substra; 2′-FPP vs 2′-PP; conditions: read-out: IC50 for inhibition of Na-dependent phosphate uptake
[8] = rat, in vivo; remark: listed apart in the source

Compound: O=C(CCc1ccc(O)cc1)c1c(O)cc(O)cc1OP(=O)(O)O
- Glucose uptake [1]: unaffected
- inhibition of alkaline phosphatase activity, compared with 2′-FPP [2]: better inhibitor
- inhibition of intestinal BBMV phosphatase activity [3]: approximately 50%
- decrease of IC50 on addition of alkaline phosphatase inhibitors [4]: 34%
- side effects [5]: no side effects
- IC50 [6]: 15 µM
- Maximum inhibition of total phosphate absorption [6]: 43±6%
- inhibition of phosphate uptake [6]: 40%
- inhibition of phosphate uptake 6 hours post-drug exposure [6]: less than 35%
- IC50 [7]: 0.046 µM
- change in serum Ca2+ [8]: no change
- decrease in serum phosphorus [8]: 30%

Source: patent publication US9328128B2 (priority 2010, dated 2016)
